# Laboratory results: publication PMC10002375, “Synthesis of 3-(2-Alkylthio-4-chloro-5-methylbenzenesulfonyl)-2-(1-phenyl-3-arylprop-2-enylideneamino)guanidine Derivatives with Pro-Apoptotic Activity against Cancer Cells” (International Journal of Molecular Sciences, 2023)
# Assays:
# HCT-116 cells [1] = test: Mitochondrial membrane potential (JC-1, flow cytometry), HCT-116; type: cell-based, human; conditions: HCT-116, 72 h, 24 at 10 or 25 μM, 31 at 25 μM
# From the text: (§1) A decrease in mitochondrial potential is one of the earliest hallmarks of apoptosis. A common method for indication of cells with high and low Δψm is flow cytometry combined with specific fluorescent probes, such as JC-1 (5,5′,6,6′-tetrachloro-1,1′,3,3′-tetraethylbenzimidazolylcarbocyanine iodide). JC-1 accumulates in mitochondria and forms complexes (J aggregates) with red fluorescence in healthy cells with a normal ΔΨm, whereas in apoptotic cells with a low ΔΨm exists as a monomer with green fluorescence.
# (§2) Analyzed cells were seeded into wells of a 24-well plate at a density of 5 × 10^4 cells in 1000 µL, incubated overnight, and then the medium was exchanged for dilutions of reagents 24 and 31. Before the end of 72 h of incubation, MitoProbe JC-1 (25 µM) was added into each plate well. Carbonyl cyanide m-chlorophenylhydrazone CCCP (200 nM) as the mitochondrial oxidative phosphorylation uncoupler was added into the positive control 15 min before JC-1 was added. After 30 min of JC-1 staining, cells were washed with PBS and then trypsinized (Corning® 25-053CI). Cells suspended in PBS were analyzed by flow cytometry at λ excitation (ex) = 488 nm and λ emission (em) = 525/570 nm (LSR II BD Biosciences, San Jose, CA, USA).
# MCF-7 cells [2] = test: Cell cycle distribution by flow cytometry, MCF-7; type: cell-based, human; conditions: for cells in sub-G1 phase: 72 h
# Experimental: (§3) The cell cycle distribution was measured by flow cytometry analysis after incubation of MCF-7, HeLa, and HCT-116 with compounds 24 and 31 for 72 h.
# HCT-116 cells [3] = test: Cell cycle distribution by flow cytometry, HCT-116; type: cell-based, human; conditions: for cells in sub-G1 phase: 72 h, control 1.15%
# Experimental: as §3
# HCT-116 cells [4] = test: Phosphatidylserine translocation (Annexin V-FITC/PI), HCT-116; type: cell-based, human
# From the text: One of the early indicators of apoptosis is the exposure of phosphatidylserine residues on the cell’s surface. Annexin V has a high affinity to phosphatidylserine and, as a conjugate to fluorescein isothiocyante (FITC), is widely used for detection of early apoptotic cells using flow cytometry. Detection of late-apoptotic or necrotic cells is achieved by using propidium iodide (PI) stain. Based on the obtained fluorescence, four subpopulations were found: PI-low/FITC-low (live cells), PI-high/FITC-low (necrotic cells), PI-low/FITC-high (early apoptotic cells), and PI-high/FITC-high (late apoptotic cells).
# Analysis was performed using FITC-conjugated annexin-V (Annexin V-FITC Apoptosis Kit I, BD Biosciences, San Jose, CA, USA) according to the manufacturer’s instructions (BD Biosciences) as described previously. HeLa, MCF-7, and HCT-116, after seeding to 24-well plates (5 × 10^4/per well) and 24 h incubation, were treated for 72 h with 24 or 31 (10/25 µM or 25 µM concentration respectively). Following treatment, cells were washed in PBS, centrifuged, and then resuspended in a binding buffer. Afterward, the cells were incubated for 15 min at 37 °C with FITC-conjugated annexin-V and propidium iodide. The samples were then analyzed using a LSR II flow cytometer (BD Biosciences) using 530 ± 25 nm (Annexin V-FITC) and 575 ± 26 nm (PI).
# The subpopulations were identified according to their fluorescence: PI-low/FITC-low (live cells), PI-high/FITC-low (necrotic cells), PI-low/FITC-high (early apoptotic cells), and PI-high/FITC-high (late apoptotic cells).
# MCF-7 cells [5] = test: Cell morphology by light microscopy, MCF-7; type: cell-based, human; conditions: MCF-7, 10 and 25 μM, 72 h
# Experimental: The evaluation of changes in cell morphology has been performed after incubation with compounds 24 and 31 for 72 h using light microscopy.
# The HeLa, MCF-7, and HCT-116 cells were seeded on 24-well plates (5 × 10^4/per well) in 1 mL of medium for 24 h. After that time, cells were treated with 24 and 31 for next 72 h. Cells were treated with 10 µM, 25 µM of 24, or 25 µM of 31. As a control, non-treated cells were used. Morphology of cells was observed after 72 h using light microscope Olympus IX83.
# MCF-7 cells [6] = test: Mitochondrial membrane potential (JC-1, flow cytometry), MCF-7; type: cell-based, human; conditions: MCF-7, 72 h, 24 at 10 or 25 μM, 31 at 25 μM
# From the text: as §1, §2
# HaCaT cells = test: MTT assay with non-cancerous HaCaT cell line; type: cell-based; conditions: Homo sapiens, HaCaT, 72 h
# Experimental: The important feature of new cytotoxic agents is their selective activity against cancer cells with a weak impact on the physiology of healthy cells. Determination of the selectivity of compounds 14–19 and 24–29 was done by MTT assay with the non-cancerous HaCaT cell line (Table 2). […] A similar effect was observed also for compound 26. […] Due to the excellent selectivity of compound 30 towards HCT-116 cells and at the same time high cytotoxicity towards this cell line (IC50 = 8 μM); derivative 30 may be a good hit compound for the search for chemotherapeutic agents for the treatment of colon cancer.
# Cell viability was determined using the MTT (3-(4,5-dimethylthiazol-2-yl)-2,5-diphenyl-tetrazoliumbromide) assay. Stock solutions of the studied compounds were prepared in 100% DMSO. […] Cells were seeded in 96-well plates at a density of 5 × 10^3 cells/well and treated for 72 h with the examined compounds in the concentration range 1–100 μM (1, 10, 25, 50, and 100 μM). Following treatment, MTT (0.5 mg/mL) was added to the medium and cells were further incubated for 2 h at 37 °C. Cells were lysed with DMSO and the absorbance of the formazan solution was measured at 550 nm with a plate reader (1420 multilabel counter, Victor, Jügesheim, Germany). […] The experiment was performed in triplicate. Values are expressed as the mean ± SD of at least three independent experiments.
structure (smiles),measurement,setting,value
"Cc1cc(S(=O)(=O)NC(N)=NN=C(C=Cc2ccccc2O)c2ccccc2)c(SCc2ccccc2Cl)cc1Cl [Compound 24, 3-{4-chloro-2-[(2-chlorophenyl)methylthio]-5-methylbenzenesulfonyl}-2-[3-(2-hydroxyphenyl)-1-phenylprop-2-enylideneamino]guanidine]",change of mitochondrial membrane potential (ΔΨm),HCT-116 cells [1],remarkable decrease in ΔΨm
same,cells in sub-G1 phase,"MCF-7 cells [2]; MCF-7, 10 μM",5.22%
same,cells in sub-G1 phase,"MCF-7 cells [2]; MCF-7, 25 μM",7.53%
same,effect on cell cycle distribution,"MCF-7 cells [2]; MCF-7, 72 h, 24 at 10 and 25 μM, 31 at 25 μM",no significant effect on the cell cycle distribution
same,cells in sub-G1 phase,"HCT-116 cells [3]; HCT-116, 10 μM",49.69%
same,cells in sub-G1 phase,"HCT-116 cells [3]; HCT-116, 25 μM",65.31%
same,effect on cell cycle distribution,"HCT-116 cells [3]; HCT-116, 72 h, 24 at 10 and 25 μM, 31 at 25 μM",significant increase in the cell distribution in the sub-G1 phase
same,induction of apoptosis (Annexin V-FITC/PI),"HCT-116 cells [4]; HCT-116, 10 μM, 72 h",Induction of apoptosis
same,population of apoptotic cells (Annexin V-FITC/PI),"HCT-116 cells [4]; HCT-116, 72 h, 24 at 10 or 25 μM, 31 at 25 μM",increased population of apoptotic cells
same,changes in cell morphology,MCF-7 cells [5],"apoptotic-like changes, such as shrinkage of the cells or detachment from the surface"
same,change of mitochondrial membrane potential (ΔΨm),MCF-7 cells [6],remarkable decrease in ΔΨm
same,IC50,HaCaT cells,33 ± 2 µM
